In paper PMC11956012, “Optimization of Cyclophilin B-Targeted Tri-vector Inhibitors for Novel MASH Treatments” (Journal of Medicinal Chemistry, 2025):
Converted amounts (≈) assume the structure as drawn. Read-outs that look alike come from different tables or passages of the source.

Assays:
[1] = system: permeabilised human hepatocyte (HepG2) cells; experiment: Calcium Retention Capacity assay; type: cell-based
Protocol: Calcium Retention Capacity Assay
The compounds were prepared as a 10 mM stock solution in 100% DMSO. Subsequent dilutions were made in 100% DMSO and then in assay buffer to 10-fold the final concentration.
HepG2 cells were permeabilized with 100 µM digitonin for 10 min in ice cold buffer containing 1mM EGTA. Following two wash steps to remove the digitonin, the cells were plated into 96 well black and clear plates at 106 cell per well in a 180 µL assay buffer containing 0.5 µM Calcium Green 5N. Compounds dilution were prepared in DMSO to 1000 fold the final concentration, diluted 1:100 in assay buffer and added to the assay as 20 µL per well. The assay buffer contained 5 mM glutamate and 2.5 mM malate. The cell plate was immediately run on the FLIPR Tetratm which added 5 µL of 200 µM (5 µM) calcium chloride every 5 minutes whilst reading the plate every 3 seconds. The area under the curve (AUC) of the raw trace was calculated at each concentration. AUC values were plotted against concentration and EC50 values calculated. Experiments were repeated three times and the EC50 value was determined from a curve fitted to the averaged replicates.

[2] = Intrinsic clearance, rat liver microsomes; type: in vitro ADME; conditions: for microsomal CLint: Table 3, read-out: Rat Liver microsomes CL
[3] = Intrinsic clearance, human liver microsomes; type: in vitro ADME; conditions: for microsomal CLint: Table 3, read-out: Human Liver microsomes CL
[4] = Intrinsic clearance, rat hepatocytes; type: in vitro ADME; conditions: for hepatocyte CLint: Table 3, read-out: Rat Hepatocytes CL
[5] = Intrinsic clearance, human hepatocytes; type: in vitro ADME; conditions: for hepatocyte CLint: Table 3, read-out: Human Hepatocytes CL
Cyp B [6] = target: T1, Cyp B (Homo sapiens, UniProt P23284); conditions: from SPR Kd
T1 sequence (P23284 32-216 limits assumed): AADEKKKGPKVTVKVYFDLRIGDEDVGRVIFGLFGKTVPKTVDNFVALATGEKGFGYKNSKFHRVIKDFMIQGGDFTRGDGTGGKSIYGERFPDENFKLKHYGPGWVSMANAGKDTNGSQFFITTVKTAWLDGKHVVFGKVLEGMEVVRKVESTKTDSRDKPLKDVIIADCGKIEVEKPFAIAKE
Protocol: (§2) The cyclophilin binding properties of the compounds were assessed by Surface Plasmon Resonance (SPR) against Cyp A, B and D isoforms (Table 1, representative sensorgrams are shown in Figure 3A).[35]
Surface Plasmon Resonance (SPR)
(§3) SPR measurements were performed on a Biacore T200 instrument (Cytiva). Ni2+ -
(§4) nitrilotriacetic acid (NTA) sensor chips, 1-ethyl-3-(3-diaminopropyl) carbodiimide
(§5) hydrochloride (EDC) and N hydroxy succinimide (NHS) were purchased from Cytiva.
(§6) Immobilization and covalent stabilization of His-Cyps Pure His-cyclophilins on the NTA
(§7) sensor chip was performed essentially as described. [Wear et al., 2017, FEBS OpenBio], using
(§8) 200 nM concentrations of each protein, in Running Buffer (PBS, pH7.4; 0.05 % surfactant P20,
(§9) 2% v/v ethanol; 50 µM EDTA), at 30 µl min-1 with 60 second contact times on the activated
(§10) NTA surfaces. This gave signals of 1,921 RU for His-CypA, 1932 RU for His-CypB and 1,397
(§11) RU for His-CypD. Specific surface protein activity was assayed by passing saturating amounts
(§12) activity were obtained for His-CypA, -B and –D, respectively.
Kinetic titration experiments
(§13) Single cycle kinetic titration binding experiments were performed in triplicate at 25 °C. 3-fold
(§14) injected over the sensor surface, at 100 µl min-1 with a 90 s contact time and a 90 s dissociation
(§15) time. The sensor surface was regenerated between experiments by dissociating any formed
(§16) complex in running buffer for at least 1,200 seconds. The apparent on-rate (k+) and off-rate (k-
(§17) ) constants and the equilibrium dissociation constant (Kd) were calculated from reference

physchem [7] = experiment: physchem
Protocol: (§18) Kinetic solubility measurements were carried out using a shake-flask technique. Compounds
(§19) were incubated for 24 hours at room temperature. Aqueous solubility (μM) was determined by
(§20) comparing the peak area of the principal peak in a calibration standard (200 μM) containing
(§21) organic solvent (methanol/water, 60/40, v/v) with the peak area of the corresponding peak in a
(§22) buffer sample. In addition, chromatographic purity (%) was defined as the peak area of the
(§23) principal peak relative to the total integrated peak area in the HPLC chromatogram of the
(§24) calibration standard. A chromatogram of the calibration standard of each test compound, along
(§25) with a UV/VIS spectrum with labeled absorbance maxima, was generated.
(§26) These were measured using a shake-flask technique. Compounds were incubated for 60 min at
(§27) room temperature. The total amount of compound was determined as the peak area of the
(§28) principal peak in a calibration standard (100 μM) containing organic solvent (methanol/water,
(§29) 60/40, v/v). The amount of compound in buffer was determined as the combined, volume
(§30) corrected, and weighted areas of the corresponding peaks in the aqueous phases of three
(§31) organic-aqueous samples of different composition. An automated weighting system was used
(§32) to ensure the preferred use of raw data from those samples with well quantifiable peak signals.
(§33) The amount of compound in organic was calculated by subtraction. Subsequently, Log D was
(§34) calculated as the Log10 of the amount of compound in the organic phase divided by the amount
of compound in the aqueous phase.

physchem [8] = experiment: physchem; remark: listed apart in the source
Protocol: as §18, §19, §20, §21, §22, §23, §24, §25, §26, §27, §28, §29, §30, §31, §32, §33, §34
of compound in the aqueous phase.

in vitro = conditions: human, Caco-2
Cyp B [9] = target: T1, Cyp B; experiment: biochemical; conditions: Kd Cyp B, SPR-derived dissociation constant, 25 °C
Protocol: as §2
Surface Plasmon Resonance (SPR)
as §3, §4, §5, §6, §7, §8, §9, §10, §11, §12
Kinetic titration experiments
as §13, §14, §15, §16, §17

Cyp A [10] = target: T2, Cyp A (Homo sapiens, UniProt P62937); experiment: SPR kinetic titration, Cyp A
T2 sequence (P62937 whole entry): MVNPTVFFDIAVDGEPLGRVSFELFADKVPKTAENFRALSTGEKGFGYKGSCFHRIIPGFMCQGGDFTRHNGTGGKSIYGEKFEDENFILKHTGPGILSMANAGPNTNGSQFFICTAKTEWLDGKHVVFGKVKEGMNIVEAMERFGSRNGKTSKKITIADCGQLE
Protocol: as §2
Surface Plasmon Resonance (SPR)
as §3, §4, §5, §6, §7, §8, §9, §10, §11, §12
Kinetic titration experiments
as §13, §14, §15, §16, §17

Cyp D [11] = target: T3, Cyp D (Homo sapiens, UniProt P30405); experiment: SPR kinetic titration, Cyp D
T3 sequence (P30405 42-207): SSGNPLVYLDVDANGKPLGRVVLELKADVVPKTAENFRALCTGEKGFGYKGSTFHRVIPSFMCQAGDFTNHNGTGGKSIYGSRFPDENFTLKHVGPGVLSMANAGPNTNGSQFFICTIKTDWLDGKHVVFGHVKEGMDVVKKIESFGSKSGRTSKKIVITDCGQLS
Protocol: as §2
Surface Plasmon Resonance (SPR)
as §3, §4, §5, §6, §7, §8, §9, §10, §11, §12
Kinetic titration experiments
as §13, §14, §15, §16, §17

iPSC-derived hepatocytes = experiment: In vitro hepatic steatosis (MASH) assay; type: cell-based; conditions: 48 h treatment; for EC50: Hepatocyte, 48 h
[12] = Rat plasma protein binding; type: in vitro ADME
From the text: (§1) These experiments were subcontracted to Eurofins. […]

[13] = Human plasma protein binding; type: in vitro ADME
From the text: as §1

CYP1A = experiment: Cytochrome P450 inhibition CYP1A; type: in vitro ADME; conditions: human, probe phenacetin; single point at 10 μM; substrate phenacetin
CYP2B6 = target: T4, CYP2B6 (Homo sapiens, UniProt P20813); experiment: Cytochrome P450 inhibition CYP2B6; type: in vitro ADME; conditions: single point at 10 μM; substrate bupropion
T4 construct: Eurofins (subcontracted)
T4 sequence (P20813 1-491): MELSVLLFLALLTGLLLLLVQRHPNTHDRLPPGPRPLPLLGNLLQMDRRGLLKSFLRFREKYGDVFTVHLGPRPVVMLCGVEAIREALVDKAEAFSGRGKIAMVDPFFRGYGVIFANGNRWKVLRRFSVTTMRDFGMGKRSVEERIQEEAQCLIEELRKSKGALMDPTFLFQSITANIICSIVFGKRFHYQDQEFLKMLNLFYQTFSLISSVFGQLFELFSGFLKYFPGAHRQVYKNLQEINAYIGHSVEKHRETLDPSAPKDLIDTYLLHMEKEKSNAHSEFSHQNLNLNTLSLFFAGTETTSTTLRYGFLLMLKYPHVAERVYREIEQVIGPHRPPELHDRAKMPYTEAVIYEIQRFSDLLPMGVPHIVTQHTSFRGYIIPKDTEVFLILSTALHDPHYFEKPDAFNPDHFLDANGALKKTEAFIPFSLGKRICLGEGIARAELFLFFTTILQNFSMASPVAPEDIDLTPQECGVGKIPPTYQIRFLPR

CYP2C8 = target: T5, CYP2C8 (Homo sapiens, UniProt P10632); experiment: Cytochrome P450 inhibition CYP2C8; type: in vitro ADME; conditions: single point at 10 μM; substrate amodiaquine
T5 construct: Eurofins (subcontracted)
T5 sequence (P10632 1-490): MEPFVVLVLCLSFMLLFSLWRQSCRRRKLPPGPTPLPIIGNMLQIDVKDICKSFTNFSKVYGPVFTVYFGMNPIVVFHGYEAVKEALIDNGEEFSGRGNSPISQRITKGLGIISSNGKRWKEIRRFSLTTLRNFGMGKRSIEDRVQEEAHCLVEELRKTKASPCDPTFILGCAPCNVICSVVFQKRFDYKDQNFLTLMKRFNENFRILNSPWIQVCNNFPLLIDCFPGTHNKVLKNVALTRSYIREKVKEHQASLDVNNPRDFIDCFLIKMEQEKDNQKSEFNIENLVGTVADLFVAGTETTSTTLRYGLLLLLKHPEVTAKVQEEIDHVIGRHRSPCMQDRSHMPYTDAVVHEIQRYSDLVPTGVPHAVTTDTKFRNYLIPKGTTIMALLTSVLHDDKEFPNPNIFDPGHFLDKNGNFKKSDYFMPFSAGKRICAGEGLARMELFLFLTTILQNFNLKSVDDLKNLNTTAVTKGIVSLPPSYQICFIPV

CYP2C9 = target: T6, CYP2C9 (Homo sapiens, UniProt P11712); experiment: Cytochrome P450 inhibition CYP2C9; type: in vitro ADME; conditions: single point at 10 μM; substrate diclofenac
T6 construct: Eurofins (subcontracted)
T6 sequence (P11712 whole entry): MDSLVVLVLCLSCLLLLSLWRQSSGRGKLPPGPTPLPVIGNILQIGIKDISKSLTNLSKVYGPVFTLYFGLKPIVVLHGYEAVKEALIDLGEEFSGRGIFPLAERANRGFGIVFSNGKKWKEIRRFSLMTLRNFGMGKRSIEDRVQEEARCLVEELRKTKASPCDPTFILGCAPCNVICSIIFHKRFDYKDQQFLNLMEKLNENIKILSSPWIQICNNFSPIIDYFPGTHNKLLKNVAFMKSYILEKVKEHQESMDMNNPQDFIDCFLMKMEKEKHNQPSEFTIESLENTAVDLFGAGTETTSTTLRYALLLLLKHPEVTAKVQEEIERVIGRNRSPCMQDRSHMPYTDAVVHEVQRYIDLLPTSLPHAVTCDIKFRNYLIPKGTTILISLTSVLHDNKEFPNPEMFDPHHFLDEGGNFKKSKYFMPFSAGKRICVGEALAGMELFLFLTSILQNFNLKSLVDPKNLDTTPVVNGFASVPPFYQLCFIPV

CYP2C19 = target: T7, CYP2C19 (Homo sapiens, UniProt P33261); experiment: Cytochrome P450 inhibition CYP2C19; type: in vitro ADME; conditions: single point at 10 μM; substrate omeprazole
T7 construct: Eurofins (subcontracted)
T7 sequence (P33261 whole entry): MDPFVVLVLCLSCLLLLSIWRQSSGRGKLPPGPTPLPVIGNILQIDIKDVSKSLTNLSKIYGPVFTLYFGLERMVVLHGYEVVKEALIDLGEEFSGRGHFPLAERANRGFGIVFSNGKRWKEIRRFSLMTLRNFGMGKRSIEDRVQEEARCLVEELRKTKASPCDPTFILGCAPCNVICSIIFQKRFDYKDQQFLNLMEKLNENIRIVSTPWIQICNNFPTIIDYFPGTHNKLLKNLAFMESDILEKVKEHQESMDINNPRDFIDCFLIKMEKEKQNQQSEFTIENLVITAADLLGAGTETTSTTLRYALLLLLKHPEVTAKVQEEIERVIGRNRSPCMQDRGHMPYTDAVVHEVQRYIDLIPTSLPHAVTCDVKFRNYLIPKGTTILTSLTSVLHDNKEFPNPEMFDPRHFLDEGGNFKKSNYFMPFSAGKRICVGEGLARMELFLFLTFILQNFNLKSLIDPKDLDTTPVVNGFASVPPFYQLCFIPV

CYP2D6 = target: T8, CYP2D6 (Homo sapiens, UniProt P10635); experiment: Cytochrome P450 inhibition CYP2D6; type: in vitro ADME; conditions: single point at 10 μM; substrate dextrometorphan
T8 construct: Eurofins (subcontracted)
T8 sequence (P10635 whole entry): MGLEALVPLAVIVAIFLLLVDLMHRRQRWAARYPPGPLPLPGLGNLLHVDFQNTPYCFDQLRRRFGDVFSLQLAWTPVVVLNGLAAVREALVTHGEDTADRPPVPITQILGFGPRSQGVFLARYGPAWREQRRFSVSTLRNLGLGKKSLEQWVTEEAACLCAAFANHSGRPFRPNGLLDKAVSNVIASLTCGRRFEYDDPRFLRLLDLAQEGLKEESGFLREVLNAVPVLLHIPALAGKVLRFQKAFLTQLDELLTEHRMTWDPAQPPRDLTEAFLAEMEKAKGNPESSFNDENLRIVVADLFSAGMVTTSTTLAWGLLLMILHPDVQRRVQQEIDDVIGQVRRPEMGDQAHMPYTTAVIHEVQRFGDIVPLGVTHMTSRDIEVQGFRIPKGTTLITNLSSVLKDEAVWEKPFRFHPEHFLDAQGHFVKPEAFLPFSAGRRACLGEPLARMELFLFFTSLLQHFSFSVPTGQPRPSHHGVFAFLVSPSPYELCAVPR

CYP3A = experiment: Cytochrome P450 inhibition CYP3A; type: in vitro ADME; conditions: human, single point at 10 μM
Cyp A [14] = target: T2, Cyp A
Protocol: as §2
Surface Plasmon Resonance (SPR)
as §3, §4, §5, §6, §7, §8, §9, §10, §11, §12
Kinetic titration experiments
as §13, §14, §15, §16, §17

Cyp D [15] = target: T3, Cyp D
Protocol: as §2
Surface Plasmon Resonance (SPR)
as §3, §4, §5, §6, §7, §8, §9, §10, §11, §12
Kinetic titration experiments
as §13, §14, §15, §16, §17

Caco-2 permeability = conditions: human, Caco-2
Caco-2 = Caco-2 permeability; conditions: apparent permeability A-B
[16] = system: Salmonella typhimurium TA98; experiment: Ames fluctuation test TA98
Protocol: (§35) Bacterial cytotoxicity tests were carried out using Reverted Salmonella typhimurium strains
(§36) (TA98, TA100, TA1535, TA1537) that were incubated 96 hours at 37 Celsius. The results for
(§37) cytotoxicity are expressed as percent of control growth (OD650). Compounds with growth of
(§38) less than 60 % of control are flagged and considered cytotoxic.
(§39) Compounds were incubated for 96 hours at 37°C at 4 different concentrations (5 mM, 10 mM,
(§40) the absence and presence of rat liver S9 microsomes.
(§41) to the reversion of the histidine mutation (as judged by the ratio of OD430/OD570 being greater
(§42) than 1.0) are counted and recorded as positive counts. The significance of the positive counts
(§43) between the treatment (in the presence of test compound) and the control (in the absence of test
(§44) compound) are calculated using the one-tailed Fisher's exact test. Three significance levels are
(§45) Very strong positive, if p < 0.001, denoted as "+++"
(§46) Control experiments were carried out with 2-aminoanthracene (10 mM), 9-aminoacridine (10
(§47) mM), quercetin (30 mM) and streptozocitin (2.5 mM).

[17] = system: Salmonella typhimurium TA100; experiment: Ames fluctuation test TA100
Protocol: as §35, §36, §37, §38, §39, §40, §41, §42, §43, §44, §45, §46, §47

[18] = system: Salmonella typhimurium TA1535; experiment: Ames fluctuation test TA1535
Protocol: as §35, §36, §37, §38, §39, §40, §41, §42, §43, §44, §45, §46, §47

[19] = system: Salmonella typhimurium TA1537; experiment: Ames fluctuation test TA1537
Protocol: as §35, §36, §37, §38, §39, §40, §41, §42, §43, §44, §45, §46, §47

[20] = Aqueous kinetic solubility, shake-flask
Protocol: as §18, §19, §20, §21, §22, §23, §24, §25, §26, §27, §28, §29, §30, §31, §32, §33, §34
of compound in the aqueous phase.

[21] = Partition coefficient (Log D), shake-flask; conditions: octanol/water
Protocol: as §18, §19, §20, §21, §22, §23, §24, §25, §26, §27, §28, §29, §30, §31, §32, §33, §34
of compound in the aqueous phase.

[22] = system: Salmonella typhimurium strains (TA98, TA100, TA1535, TA1537); experiment: Ames tests, all strains (summary in words); conditions: in absence and presence of liver S9 fractions
Protocol: as §35, §36, §37, §38, §39, §40, §41, §42, §43, §44, §45, §46, §47

Cyp A [23] = target: T2, Cyp A; experiment: Isothermal titration calorimetry (ITC), Cyp A; type: binding; set-up: full-length human CypA (M1 – E165); made in house; host or cells: Escherichia coli OverExpress C41 BL21(DE3); conditions: 25 °C
Protocol: All ITC experiments were carried out at 25°C on a MicroCal Auto iTC200 (GE Healthcare)
solutions were heated to 65°C and/or sonicated prior to the experiment. Each experiment
consisted of an initial injection of 0.4 μL followed by repeated 2 μL injections to achieve
saturation. In all cases the first injection
was omitted from the data processing. All data were analysed using the MicroCal PEAQ-ITC
Analysis software. A fixed stoichiometry to 1 was applied during the non-linear regression of
the raw data for fitting the data.

Q: What does the source list for `CSc1ccccc1[C@H]1CCCN1C(=O)CNC(=O)N(Cc1ccc2c(c1)[C@H]1C[C@@H](N2)[C@H](O)CO1)Cc1nnn(C)n1` [Compound 3, 1-[[(1S,9R,10S)-10-Hydroxy-12-oxa-8-azatricyclo[7.3.1.0,^27]trideca-2,4,6-trien-4-yl]methyl]-3-[2-[(2R)-2-(2-methylsulfanylphenyl)pyrrolidin-1-yl]-2-oxo-ethyl]-1-[(2-methyltetrazol-5-yl)methyl]urea]?
A: EC50 ([1]; Homo sapiens, HepG2, read-out: EC50 CRC assay): 244 nM; greater efficacy over CsA in the calcium retention assay ([1]; from EC50 values): 2 fold; half-life [2]: 51 min; microsomal CLint [2]: 137 µL/min/mg; half-life [3]: 41 min; microsomal CLint [3]: 169 µL/min/mg; half-life ([4]; cryopreserved hepatocytes): > 120 min; hepatocyte CLint ([4]; cryopreserved hepatocytes): < 8 µL/min/1e6 cells; half-life ([5]; cryopreserved hepatocytes): > 120 min; hepatocyte CLint ([5]; cryopreserved hepatocytes): < 8 µL/min/1e6 cells; selectivity for Cyp B over Cyp A (Cyp B [6]): 3 fold; logD (physchem [7]): 0.66; solubility (physchem [8]): 54 µM (≈ 32 µg/mL); solubility (physchem [8]; pH 7.4): > 200 µM; Papp A→B (in vitro): 0.03 ×10⁻⁶ cm/s; efflux ratio (in vitro): 37; Kd (Cyp B [9]): 2 ± 1 nM; Kd (Cyp A [10]): 6 ± 2 nM; Kd (Cyp D [11]): 8 ± 3 nM

Q: With `CSc1ccccc1[C@H]1CCCN1C(=O)CNC(=O)N(Cc1ccc(N)c(Cl)c1)Cc1nnn(C)n1` [Compound 11, 1-[(4-Amino-3-chloro-phenyl)methyl]-1-[(2-methyltetrazol-5-yl)methyl]-3-[2-oxo-2-[(2R)-2-(2-methylsulfanylphenyl)pyrrolidin-1-yl]ethyl]urea] as the molecule, how does the “effect on hepatocyte overall lipid levels and lipid droplet size (in words)” value (iPSC-derived hepatocytes) read?
A: significant reduction

Q: And the EC50 (iPSC-derived hepatocytes; 95% CI [lower limit, upper limit], read-out: EC50 steatosis)?
A: ~300 nM

Q: What about the EC50 (iPSC-derived hepatocytes; read-out: EC50 MASH assay) of the same molecule?
A: 258 nM

Q: What about the microsomal CLint [2] of the same molecule?
A: 352 µL/min/mg

Q: And the half-life ([2]; read-out: Rat Liver microsomes t1/2)?
A: 20 min

Q: What about the microsomal CLint [3] of the same molecule?
A: 558 µL/min/mg

Q: And the half-life ([3]; read-out: Human Liver microsomes t1/2)?
A: 12 min

Q: What about the hepatocyte CLint ([4]; hepatocytes) of the same molecule?
A: 13 µL/min/1e6 cells

Q: What about the half-life ([4]; hepatocytes, read-out: Rat Hepatocytes t1/2) of the same molecule?
A: 78 min

Q: What about the hepatocyte CLint ([5]; hepatocytes) of the same molecule?
A: 13 µL/min/1e6 cells

Q: And the half-life ([5]; hepatocytes, read-out: Human Hepatocytes t1/2)?
A: 74 min

Q: What about the recovery at 10 μM [12] of the same molecule?
A: 99%

Q: What about the fraction unbound at 10 µM ([12]; read-out: Rat PPB free) of the same molecule?
A: 0.11

Q: What about the recovery [13] of the same molecule?
A: 88%

Q: And the fraction unbound at 10 µM ([13]; read-out: Human PPB free)?
A: 0.02

Q: And the inhibition at 10 µM (CYP1A)?
A: 25%

Q: And the “CYP2B6 bupropion % inhibition” value (CYP2B6)?
A: 11%

Q: What about the “CYP2C8 amodiaquine % inhibition” value (CYP2C8) of the same molecule?
A: 71%

Q: What about the “CYP2C9 diclofenac % inhibition” value (CYP2C9) of the same molecule?
A: 45%

Q: What about the “CYP2C19 omeprazole % inhibition” value (CYP2C19) of the same molecule?
A: 72%

Q: And the “CYP2D6 dextrometor. % inhibition” value (CYP2D6)?
A: 18%

Q: And the inhibition at 10 µM (CYP3A; probe midazolam, substrate midazolam, read-out: CYP3A midazolam % inhibition)?
A: 73%

Q: And the inhibition at 10 µM (CYP3A; probe testoterone, substrate testoterone, read-out: CYP3A testoterone % inhibition)?
A: 59%

Q: And the Kd (Cyp A [14])?
A: 110 ± 50 nM

Q: What about the “greater affinity for Cyp B compared to 12” value (Cyp B [6]) of the same molecule?
A: ca. 7 fold

Q: What about the “selectivity for Cyp B over Cyp A” value (Cyp B [6]) of the same molecule?
A: 10 fold

Q: And the “selectivity for Cyp B over Cyp A and Cyp D” value (Cyp B [6])?
A: 10–20 fold

Q: What about the Kd (Cyp D [15]) of the same molecule?
A: 180 ± 100 nM

Q: And the Kd (Cyp B [9])?
A: 12 ± 3 nM

Q: What about the efflux ratio (Caco-2 permeability) of the same molecule?
A: 2.8

Q: And the “Caco-2 A-B” value (Caco-2)?
A: 5 10^–6 cm/s

Q: And the “Ames fluctuation test TA98 +S9” value ([16]; with rat liver S9)?
A: neg/neg

Q: What about the “Ames fluctuation test TA98 –S9” value ([16]; without S9) of the same molecule?
A: neg/neg

Q: What about the “Ames fluctuation test TA100 +S9” value ([17]; with rat liver S9) of the same molecule?
A: neg/neg

Q: And the “Ames fluctuation test TA100 –S9” value ([17]; without S9)?
A: neg/neg

Q: What about the “Ames fluctuation test TA1535 +S9” value ([18]; with rat liver S9) of the same molecule?
A: neg/neg

Q: And the “Ames fluctuation test TA1535 –S9” value ([18]; without S9)?
A: neg/neg

Q: And the “Ames fluctuation test TA1537 +S9” value ([19]; with rat liver S9)?
A: neg/neg

Q: And the “Ames fluctuation test TA1537 –S9” value ([19]; without S9)?
A: neg/neg

Q: What about the solubility at 24 h ([20]; PBS, pH 7.4) of the same molecule?
A: > 200 µM

Q: What about the solubility at 24 h ([20]; simulated gastric fluid) of the same molecule?
A: > 200 µM

Q: And the solubility at 24 h ([20]; simulated intestinal fluid)?
A: > 200 µM

Q: What about the logD at 1 h, 100 µM [21] of the same molecule?
A: 1.53

Q: And the “Ames result in all strains tested” value [22]?
A: negative

Q: And the “DG (ITC)” value (Cyp A [23]; ITC titration to Cyp A)?
A: -9.7 ± 0.1 kcal/mol

Q: What about the “DH (ITC)” value (Cyp A [23]; ITC titration to Cyp A) of the same molecule?
A: -16.4 ± 0.1 kcal/mol

Q: What about the “TDS (ITC)” value (Cyp A [23]; ITC titration to Cyp A) of the same molecule?
A: -6.7 kcal/mol

Q: And the Kd (Cyp A [23]; ITC, pH 6.5, 2% DMSO, read-out: Kd Cyp A from ITC)?
A: 82 ± 6 nM
